BindingDB's records for doi:10.7270/Q2ZC817P (The Scripps Research Institute Molecular Screening Center, 2007)
Where a name gives a salt, the structure may show the parent alone.

Target: Sphingosine 1-phosphate receptor 1 (Homo sapiens, UniProt P21453)
Experiment: potentiators of S1P1 agonist response, dose response, cell-based, potentiator mode, 60K MLSMR set (AID 466)
Settings: not given

Sphingosine 1-phosphate receptor 1, sequence (P21453 whole entry): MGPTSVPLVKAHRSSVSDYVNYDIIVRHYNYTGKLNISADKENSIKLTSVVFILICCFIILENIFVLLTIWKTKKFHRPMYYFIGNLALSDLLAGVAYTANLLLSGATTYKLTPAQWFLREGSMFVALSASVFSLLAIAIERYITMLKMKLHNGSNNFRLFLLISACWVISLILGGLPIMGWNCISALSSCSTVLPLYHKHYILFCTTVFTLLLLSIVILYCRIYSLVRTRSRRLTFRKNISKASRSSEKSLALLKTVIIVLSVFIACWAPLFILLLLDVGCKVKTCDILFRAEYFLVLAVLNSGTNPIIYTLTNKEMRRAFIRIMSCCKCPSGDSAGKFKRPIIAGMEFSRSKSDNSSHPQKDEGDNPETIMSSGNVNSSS

Row | Compound | EC50 [µM]
1 | COC(=O)C1=CN(CCCN2CCCC2=O)C=C(C(=O)OC)C1c1ccccc1C(F)(F)F | > 95
2 | CCC(NC(=O)Nc1nnc(C(F)(F)F)s1)(C(F)(F)F)C(F)(F)F | > 95
3 | Cn1ncnc2c(=O)n(C)c(=O)nc1-2 | 1.73
4 | CCC1CCCCN1C(=O)CSc1nnc(-c2c[nH]c3ccccc23)o1 (centres undefined) | 4.61
5 | O=C(Nc1ccc(N2CCCCC2)c(Cl)c1)c1nnc[nH]1 | 0.879
6 | COc1ccc2[nH]c(=O)c3c(c2c1)OC(C)(C)C=C3 | 6.25
7 | Oc1c(Cl)cc(Cl)cc1Sc1cc(Cl)cc(Cl)c1O | 1.24
8 | Fc1ccc2[nH]c3c(N4CCN(c5ccccc5)CC4)ncnc3c2c1 | 9.52
9 | CC(C)OCCCNc1ncnc2c1[nH]c1ccc(F)cc12 | 5.48
10 | c1ccc(CSc2nnc(-c3c[nH]c4ccccc34)o2)cc1 | 1.59
11 | O=C(Cc1c[nH]c2ccccc12)N1CCc2ccccc21 | 7.74
12 | CN1/C(=C/C(=O)c2nc(S(C)(=O)=O)ncc2Cl)C(C)(C)c2ccccc21 | 9.04
13 | CCCCOC(=O)c1[nH]c2c(c1C)C(=O)CC(c1cc(OC)c(OC)c(OC)c1)C2 (centres undefined) | 5.06
14 | CCOC(=O)/C=C/S(=O)(=O)c1ccc(NC(C)=O)cc1 | > 10
15 | Cc1ccc(-c2n[nH]c(=S)n2C)cc1 | > 95
16 | Clc1ccc(NCn2cncn2)nc1 | > 95
17 | CCc1oc2ccccc2c1C(=O)c1cc(Br)c(O)c(Br)c1 | 5.13
18 | Cc1nn(-c2nc3ccccc3s2)c(N)c1-c1ccccc1 [1-(1,3-benzothiazol-2-yl)-3-methyl-4-phenyl-1H-pyrazol-5-amine] | 0.385

Row | Compound | EC50 [µM]
19 | COc1ccc(-n2c(O)cc(Sc3nnc[nH]3)c2O)c(OC)c1 [1-(2,4-dimethoxyphenyl)-3-(1H-1,2,4-triazol-5-ylthio)pyrrolidine-2,5-dione] | 16.4
20 | Cc1ccc(-n2ncc3c(N4CCCC(C)C4)ncnc32)c(C)c1 (centres undefined) [1-(2,4-dimethylphenyl)-4-(3-methylpiperidin-1-yl)-1H-pyrazolo[3,4-d]pyrimidine] | 8.81
21 | CCOc1ccc(S(=O)(=O)N2CCN(c3ccc(C)cc3C)CC2)cc1 [1-(2,4-dimethylphenyl)-4-(4-ethoxyphenyl)sulfonyl-piperazine] | > 95
22 | O=S(=O)(c1cccs1)N1CCN(CC(O)COc2cc(Cl)ccc2Cl)CC1 (centres undefined) [1-(2,5-dichlorophenoxy)-3-(4-thiophen-2-ylsulfonyl-1-piperazinyl)-2-propanol] | 4.33
23 | CC1CCCC(C)N1C(=O)CN1CCN(c2nc(-c3ccc(F)cc3)cs2)CC1 (centres undefined) [1-(2,6-Dimethyl-piperidin-1-yl)-2-{4-[4-(4-fluoro-phenyl)-thiazol-2-yl]-piperazin-1-yl}-ethanone] | > 10
24 | CCN(CC)C(=O)C1CCN(S(=O)(=O)c2ccc3oc4ccccc4c3c2)CC1 [1-(2-dibenzofuranylsulfonyl)-N,N-diethyl-4-piperidinecarboxamide] | > 30
25 | COc1ccccc1N=C(N)Nc1nc(CSc2ccc(C)cc2)cc(=O)[nH]1 [1-(2-methoxyphenyl)-2-[6-[[(4-methylphenyl)thio]methyl]-4-oxo-1H-pyrimidin-2-yl]guanidine] | 9.15
26 | Cc1occc1C(=O)N1CCN(c2ccc(Cl)c(Cl)c2)CC1 [1-(3,4-dichlorophenyl)-4-(2-methyl-3-furoyl)piperazine] | 5.18
27 | COc1ccc(S(=O)(=O)N2CCN(c3ccc(C)cc3C)CC2)cc1OC [1-(3,4-dimethoxyphenyl)sulfonyl-4-(2,4-dimethylphenyl)piperazine] | 7.77
28 | COc1cc(-c2noc(C3CCCN(S(=O)(=O)c4cccc(Cl)c4)C3)n2)cc(OC)c1OC (centres undefined) [1-(3-Chloro-benzenesulfonyl)-3-[3-(3,4,5-trimethoxy-phenyl)-[1,2,4]oxadiazol-5-yl]-piperidine] | 2.6
29 | COc1ccc(C(=O)C(CN2CCOCC2)c2ccccc2)cc1F (centres undefined) [1-(3-Fluoro-4-methoxy-phenyl)-3-morpholin-4-yl-2-phenyl-propan-1-one] | 31.1
30 | CCOc1ccc(S(=O)(=O)n2cnc3cc(C)c(C)cc32)cc1 [1-(4-Ethoxy-benzenesulfonyl)-5,6-dimethyl-1H-benzoimidazole] | 8.29
31 | N#Cc1ccc(NC(=O)Nc2ccc(Cl)cc2)cc1 [1-(4-chlorophenyl)-3-(4-cyanophenyl)urea] | 7.91
32 | Cc1cccc(NC(=O)Nc2ccc(C#N)cc2)n1 [1-(4-cyanophenyl)-3-(6-methyl-2-pyridinyl)urea] | > 30
33 | O=C(c1ccc(F)cc1)C(CN1CCOCC1)c1ccccc1 (centres undefined) [1-(4-fluorophenyl)-3-(4-morpholinyl)-2-phenyl-1-propanone;hydrochloride] | 23.5
34 | CCOC(=O)C1CCN(c2ncnc3c2oc2ccc(Cl)cc23)CC1 [1-(8-chloro-4-benzofuro[3,2-d]pyrimidinyl)-4-piperidinecarboxylic acid ethyl ester] | > 95
35 | OC1(c2cccc(C(F)(F)F)c2)CCN(c2ncnc3c2[nH]c2ccc(F)cc23)CC1 [1-(8-fluoranyl-5H-pyrimido[5,4-b]indol-4-yl)-4-[3-(trifluoromethyl)phenyl]piperidin-4-ol] | 4.41
36 | O=C(Nc1cccc(C(F)(F)F)c1)C1CCCN1S(=O)(=O)c1cccc2cccnc12 (centres undefined) [1-(8-quinolinylsulfonyl)-N-[3-(trifluoromethyl)phenyl]-2-pyrrolidinecarboxamide] | 5.41

Second part, the molecule after the results:

Row | EC50 [µM] | Compound
37 | 6.55 | c1ccc2c(c1)oc1c(N3CCN(Cc4ccc5c(c4)OCO5)CC3)ncnc12
38 | 13.1 | Oc1ccc(-c2nc(-c3ccc(O)c(O)c3)cs2)cc1
39 | 7.48 | O=C(CSc1nnc(-c2c[nH]c3ccccc23)o1)N1c2ccccc2CCc2ccccc21
40 | 0.837 | O=C(CSc1nnc(-c2c[nH]c3ccccc23)o1)N(Cc1ccccc1)c1ccc(F)cc1
41 | > 30 | Cc1ccc2[nH]c3c(N4CCN(Cc5ccc6c(c5)OCO6)CC4)ncnc3c2c1
42 | 6.13 | Cc1cc(C(=O)CSc2nnc(-c3ccccc3)n2-c2ccccc2)c(C)n1-c1nnc[nH]1
43 | > 0.3 | CC1=NC(=O)NC(c2ccc(Cl)cc2)C1C(=O)OCc1ccc2c(c1)OCO2 (centres undefined) [1,3-benzodioxol-5-ylmethyl 4-(4-chlorophenyl)-6-methyl-2-oxidanylidene-3,4-dihydro-1H-pyrimidine-5-carboxylate]
44 | 0.631 | CC1=NC(=O)NC(c2ccc(F)cc2)C1C(=O)OCc1ccc2c(c1)OCO2 (centres undefined) [1,3-benzodioxol-5-ylmethyl 4-(4-fluorophenyl)-6-methyl-2-oxidanylidene-3,4-dihydro-1H-pyrimidine-5-carboxylate]
45 | 3.42 | CC1=NC(=O)NC(c2ccccc2)C1C(=O)OCc1ccc2c(c1)OCO2 (centres undefined) [1,3-benzodioxol-5-ylmethyl 6-methyl-2-oxidanylidene-4-phenyl-3,4-dihydro-1H-pyrimidine-5-carboxylate]
46 | 8.5 | O=C(Nc1ccc(OC(F)F)c(Cl)c1)Nc1ccc2c(c1)OCO2 [1-(1,3-benzodioxol-5-yl)-3-[3-chloro-4-(difluoromethoxy)phenyl]urea]
47 | 5.42 | Cc1cccc(-c2nc(CSCC(=O)N3CCN(Cc4ccc5c(c4)OCO5)CC3)c(C)o2)c1 [1-(1,3-benzodioxol-5-ylmethyl)-4-[({[5-methyl-2-(3-methylphenyl)-1,3-oxazol-4-yl]methyl}thio)acetyl]piperazine]
48 | > 95 | CC(C)C(c1nnnn1Cc1ccccc1)N(Cc1ccco1)Cc1cccs1 (centres undefined) [1-(1-benzyltetrazol-5-yl)-N-(furan-2-ylmethyl)-2-methyl-N-(thiophen-2-ylmethyl)propan-1-amine]
49 | 12.4 | O=C(CCN1CCc2ccccc2CC1)c1ccc2c(c1)OCCO2 [1-(2,3-dihydro-1,4-benzodioxin-6-yl)-3-(1,2,4,5-tetrahydro-3-benzazepin-3-yl)-1-propanone;hydrochloride]
50 | 4.19 | Cc1cc(C(=O)CSc2nnc(-c3cccs3)o2)c(C)n1-c1ccccc1 [1-(2,5-dimethyl-1-phenyl-3-pyrrolyl)-2-[(5-thiophen-2-yl-1,3,4-oxadiazol-2-yl)thio]ethanone]
51 | 6.14 | Cc1cc(C(=O)CSc2nnnn2-c2ccc(O)cc2)c(C)n1Cc1ccc2c(c1)OCO2 [1-(2,5-dimethyl-1-piperonyl-pyrrol-3-yl)-2-[[1-(4-hydroxyphenyl)tetrazol-5-yl]thio]ethanone]
52 | 3.19 | CCCS(=O)(=O)c1nnnn1-c1cccc(OC)c1 [1-(3-methoxyphenyl)-5-(propylsulfonyl)-1H-tetrazole]
53 | 2.87 | COc1cc(CSc2nnnn2-c2ccc(C)cc2)cc(OC)c1OC [1-(4-methylphenyl)-5-[(3,4,5-trimethoxybenzyl)thio]-1H-tetrazole]

Same assay, conditions: inactive by the depositor's call

Row | Compound | EC50 [µM]
54 | CC1=CC(C)(C)Nc2ccc(OC(=O)c3ccco3)cc21 | 18
55 | O=S1(=O)C=C(Sc2nnc(-c3ccccc3)o2)c2ccccc21 | 23.5
56 | CCc1ccc(N(CC)c2ncnc3nc[nH]c23)cc1 | 14.7
57 | Cc1n[nH]c(C)c1N1C(=O)c2cccc3c(N4CCCCCC4)ccc(c23)C1=O | 12.5
58 | CC(C)Cn1c(=O)c(C(=O)Nc2ccccc2S(N)(=O)=O)c(O)c2ccccc21 [1-(2-methylpropyl)-2-oxidanyl-4-oxidanylidene-N-(2-sulfamoylphenyl)quinoline-3-carboxamide] | 14.4
59 | O=C1CC(N2CCN(C/C=C/c3ccccc3)CC2)C(=O)N1CCc1ccccc1 (centres undefined) [1-(2-phenylethyl)-3-[4-[(E)-3-phenylprop-2-enyl]-1-piperazinyl]pyrrolidine-2,5-dione] | 19.3
60 | COc1cccc(NC(=O)Nc2nnc(N3CCCCC3C)s2)c1 (centres undefined) [1-(3-methoxyphenyl)-3-[5-(2-methyl-1-piperidinyl)-1,3,4-thiadiazol-2-yl]urea] | 11.5
61 | CCCCOc1ccc(S(=O)(=O)n2c(C)nc3ccccc32)cc1 [1-(4-butoxyphenyl)sulfonyl-2-methyl-benzimidazole] | 28.9

Second part, the molecule after the results:

Row | EC50 [µM] | Compound
62 | 12.3 | CN1c2ccccc2C(C)(C)C12C=Cc1cc(O)ccc1O2 (centres undefined) [1',3',3'-trimethyl-6-spiro[1-benzopyran-2,2'-indole]ol]
63 | 10.3 | C=CCn1c(C)cc(C(=O)CSc2nc3ccccc3o2)c1C [1-(1-allyl-2,5-dimethyl-pyrrol-3-yl)-2-(1,3-benzoxazol-2-ylthio)ethanone]
64 | 14.8 | Cc1ccc(C)c(-n2nnnc2Sc2nnnn2-c2ccccc2)c1 [1-(2,5-dimethylphenyl)-5-(1-phenyltetrazol-5-yl)sulfanyltetrazole]
